Like-named read-outs stand apart in the source and are kept apart here.
Experiments:
Format in all cases: in vivo
[1] = test system: barnyardgrass (Echinochloa crus-galli); assay: Test A pre-/postemergence: barnyardgrass; conditions: Echinochloa crus-galli, 240 h; for pest or weed control at 125 g/ha: 125 g ai/ha; for pest or weed control at 500 g/ha: 500 g ai/ha
Summary of the method: (§1)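 Visual 0–100 injury ratings (0 no effect, 100 complete control) taken about ten days after treatment, relative to untreated controls. Preemergence treatment was a directed soil spray; postemergence plants were 2–10 cm tall at one- to two-leaf stage. Soil: loam/sand blend.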

[2] = test system: velvetleaf (Abutilon theophrasti); assay: Test A pre-/postemergence: velvetleaf; conditions: Abutilon theophrasti, 240 h; for pest or weed control at 125 g/ha: 125 g ai/ha; for pest or weed control at 500 g/ha: 500 g ai/ha
Summary of the method: as §1

[3] = test system: corn (Zea mays); assay: Test A pre-/postemergence: corn; conditions: Zea mays, 240 h; for plant injury at 125 g/ha / plant injury at 500 g/ha: post-emergence, Postemergence, read-out: Corn plant response rating; for plant injury at 125 g/ha / Corn plant response rating (crop injury, 0 = no effect, 100 = complete kill) at 125 g/ha: 125 g ai/ha; for plant injury at 500 g/ha / Corn plant response rating (crop injury, 0 = no effect, 100 = complete kill) at 500 g/ha: 500 g ai/ha; for plant injury at 500 g/ha: visual rating on 0 to 100 scale (0 no effect, 100 complete control), approximately ten days; for Corn plant response rating (crop injury, 0 = no effect, 100 = complete kill) at 125 g/ha / Corn plant response rating (crop injury, 0 = no effect, 100 = complete kill) at 500 g/ha: pre-emergence, Preemergence
Summary of the method: as §1

[4] = test system: blackgrass (Alopecurus myosuroides); assay: Test C pre-/postemergence: blackgrass
Source text: (§2) Seeds of plant species selected from blackgrass (Alopecurus myosuroides), bromegrass, downy (downy bromegrass, Bromus tectorum), foxtail, green (green foxtail, Setaria viridis), ryegrass, Italian (Italian ryegrass, Lolium multiflorum), winter wheat (Triticum aestivum), wild oat (Avena fatua), galium (catchweed bedstraw, Galium aparine), bermudagrass (Cynodon dactylon), surinam grass (Brachiaria decumbens), cocklebur (common cocklebur, Xanthium strumarium), corn (Zea mays), large crabgrass (Digitaria sanguinalis), woolly cupgrass (Eriochloa villosa), foxtail, giant (giant foxtail, Setaria faberii), goosegrass (Eleusine indica), johnsongrass (Sorghum halepense), kochia (Kochia scoparia), lambsquarters (Chenopodium album), morningglory (Ipomoea coccinea), nightshade (eastern black nightshade, Solanum ptycanthum), nutsedge, yellow (yellow nutsedge, Cyperus esculentus), pigweed (Amaranthus retroflexus), ragweed (common ragweed, Ambrosia elation), soybean (Glycine max), common (oilseed) sunflower (Helianthus annuus), Russian thistle (Salsola kali) and velvetleaf (Abutilon theophrasti) were planted into a blend of loam soil and sand and treated preemergence with test chemicals formulated in a non-phytotoxic solvent mixture which included a surfactant.
(§3) At the same time, plants selected from these crop and weed species and also barley (winter barley, Hordeum vulgare), canarygrass (Phalaris minor), chickweed (common chickweed, Stellaria media) windgrass (Apera spica-venti) and deadnettle (henbit deadnettle, Lamium amplexicaule) were planted in pots containing Redi-Earth® planting medium (Scotts Company, 14111 Scottslawn Road, Marysville, Ohio 43041) comprising spaghnum peat moss, vermiculite, wetting agent and starter nutrients and treated with postemergence applications of test chemicals formulated in the same manner. Plants ranged in height from 2 to 18 cm (1- to 4-leaf stage) for postemergence treatments.
(§4) Treated plants and controls were maintained in a greenhouse for 13 to 15 days, after which time all species were compared to controls and visually evaluated. Plant response ratings, summarized in Table C, are based on a scale of 0 to 100 where 0 is no effect and 100 is complete control. A dash (-) response means no test result.

[5] = test system: winter wheat (Triticum aestivum); assay: Test C pre-/postemergence: winter wheat
Source text: as §2, §3, §4

[6] = test system: wild oat (Avena fatua); assay: Test C pre-/postemergence: wild oat
Source text: as §2, §3, §4

[7] = test system: johnsongrass (Sorghum halepense); assay: Test C pre-/postemergence: johnsongrass
Source text: as §2, §3, §4

[8] = test system: pigweed (Amaranthus retroflexus); assay: Test C pre-/postemergence: pigweed
Source text: as §2, §3, §4

[9] = test system: chickweed (common chickweed, Stellaria media); assay: Test C postemergence: chickweed
Source text: as §3, §4

[10] = post-emergence, Postemergence, 0 to 100 scale, 0 is no effect, 100 is complete control, read-out: Barnyardgrass plant response rating
[11] = post-emergence, Postemergence, visual rating on 0 to 100 scale (0 no effect, 100 complete control), approximately ten days, read-out: Barnyardgrass plant response rating
[12] = pre-emergence, Preemergence, 0 to 100 scale (0 no effect, 100 complete control), read-out: Plant response rating, Barnyardgrass
[13] = pre-emergence, Preemergence, 0 to 100 scale, 0 is no effect, 100 is complete control, read-out: Plant response rating, Barnyardgrass
[14] = post-emergence, Postemergence, 0 to 100 scale, 0 is no effect, 100 is complete control, read-out: Velvetleaf plant response rating
[15] = post-emergence, Postemergence, visual rating on 0 to 100 scale (0 no effect, 100 complete control), approximately ten days, read-out: Velvetleaf plant response rating
[16] = pre-emergence, Preemergence, 0 to 100 scale (0 no effect, 100 complete control), read-out: Plant response rating, Velvetleaf
[17] = pre-emergence, Preemergence, 0 to 100 scale, 0 is no effect, 100 is complete control, read-out: Plant response rating, Velvetleaf
[18] = 0 to 100 scale, 0 is no effect, 100 is complete control
[19] = 0 to 100 scale (0 no effect, 100 complete control)
[20] = Postemergence, 31 g ai/ha, scale 0 to 100 (0 no effect, 100 complete control)
[21] = Postemergence, 62 g ai/ha, scale 0 to 100 (0 no effect, 100 complete control)
[22] = Postemergence, 125 g ai/ha, scale 0 to 100, 0 no effect, 100 complete control
[23] = Postemergence, 250 g ai/ha, scale 0 to 100
[24] = Preemergence, 31 g ai/ha, scale of 0 to 100, 0 is no effect, 100 is complete control
[25] = Preemergence, 125 g ai/ha, scale 0 to 100, 0 no effect, 100 complete control
[26] = Preemergence, 250 g ai/ha, scale 0 to 100, 0 no effect, 100 complete control
[27] = Preemergence, 62 g ai/ha, scale of 0 to 100, 0 is no effect, 100 is complete control
[28] = pre-emergence, Preemergence, 0 to 100 scale where 0 is no effect and 100 is complete control, read-out: Plant response rating, Barnyardgrass
[29] = pre-emergence, Preemergence, 0 to 100 scale where 0 is no effect and 100 is complete control, read-out: Plant response rating, Velvetleaf
[30] = 0 to 100 scale where 0 is no effect and 100 is complete control

Cc1nn(-c2ccc(C(F)(F)F)cc2)nc1Oc1csc(C(F)(F)F)c1 [Compound 1, 4-methyl-2-[4-(trifluoromethyl)phenyl]-5-[[5-(trifluoromethyl)-3-thienyl]oxy]-2H-1,2,3-triazole] showed a pest or weed control at 125 g/ha [1, 10] of 0%, a pest or weed control at 500 g/ha [1, 11] of 20% and a pest or weed control at 125 g/ha [1, 12] of 20%. It also gave a pest or weed control at 500 g/ha [1, 13] of 50%, a pest or weed control at 125 g/ha [2, 14] of 30% and a pest or weed control at 500 g/ha [2, 15] of 70%. The pest or weed control at 125 g/ha [2, 16] was 0%, the pest or weed control at 500 g/ha [2, 17] was 10% and the plant injury at 125 g/ha [3, 18] was 20%. It also gave a plant injury at 500 g/ha [3] of 20%, a Corn plant response rating (crop injury, 0 = no effect, 100 = complete kill) at 125 g/ha [3, 19] of 0% and a Corn plant response rating (crop injury, 0 = no effect, 100 = complete kill) at 500 g/ha [3, 18] of 0%.
FC(F)(F)COc1nn(-c2ccc(C(F)(F)F)cc2)nc1Cc1ccnc(C(F)(F)F)c1 [Compound 14, 4-[[5-(2,2,2-trifluoroethoxy)-2-[4-(trifluoromethyl)phenyl]-2H-1,2,3-triazol-4-yl]methyl]-2-(trifluoromethyl)pyridine] showed a pest or weed control at 125 g/ha [1, 10] of 80%, a pest or weed control at 500 g/ha [1, 11] of 90% and a pest or weed control at 125 g/ha [1, 12] of 70%. It also gave a pest or weed control at 500 g/ha [1, 13] of 90%, a pest or weed control at 125 g/ha [2, 14] of 100% and a pest or weed control at 500 g/ha [2, 15] of 100%. The pest or weed control at 125 g/ha [2, 16] was 70%, the pest or weed control at 500 g/ha [2, 17] was 90% and the plant injury at 125 g/ha [3, 18] was 20%. It also gave a plant injury at 500 g/ha [3] of 40%, a Corn plant response rating (crop injury, 0 = no effect, 100 = complete kill) at 125 g/ha [3, 19] of 20% and a Corn plant response rating (crop injury, 0 = no effect, 100 = complete kill) at 500 g/ha [3, 18] of 30%. The “Plant response rating, Blackgrass” value [4, 20] was 15, the “Plant response rating, Blackgrass” value [4, 21] was 40 and the “Plant response rating, Blackgrass” value [4, 22] was 60. The “Plant response rating, Blackgrass” value [4, 23] was 85, the “Plant response rating, Blackgrass” value [4, 24] was 5 and the “Plant response rating, Blackgrass” value ([4]; Preemergence, 62 g ai/ha, scale 0 to 100, 0 no effect, 100 complete control) was 40. For the same compound, the “Plant response rating, Blackgrass” value [4, 25] was 85, the “Plant response rating, Blackgrass” value [4, 26] was 98 and the “Plant response rating, Wheat” value [5, 20] was 30. The “Plant response rating, Wheat” value [5, 21] was 35, the “Plant response rating, Wheat” value [5, 22] was 40 and the “Plant response rating, Wheat” value [5, 23] was 45. The “Plant response rating, Wheat” value [5, 24] was 0, the “Plant response rating, Wheat” value [5, 27] was 15 and the “Plant response rating, Wheat” value [5, 25] was 35. The “Plant response rating, Wheat” value [5, 26] was 45, the “Plant response rating, Oat, Wild” value [6, 20] was 25 and the “Plant response rating, Oat, Wild” value [6, 21] was 45. The “Plant response rating, Oat, Wild” value [6, 22] was 50, the “Plant response rating, Oat, Wild” value [6, 23] was 60 and the “Plant response rating, Oat, Wild” value [6, 24] was 20. For the same compound, the “Plant response rating, Oat, Wild” value [6, 27] was 40, the “Plant response rating, Oat, Wild” value [6, 25] was 70 and the “Plant response rating, Oat, Wild” value [6, 26] was 90. For the same compound, the “Plant response rating, Johnsongrass” value [7, 20] was 20, the “Plant response rating, Johnsongrass” value [7, 21] was 20 and the “Plant response rating, Johnsongrass” value [7, 22] was 55. The “Plant response rating, Johnsongrass” value [7, 23] was 75, the “Plant response rating, Johnsongrass” value [7, 24] was 20 and the “Plant response rating, Johnsongrass” value [7, 27] was 45. The “Plant response rating, Johnsongrass” value [7, 25] was 80, the “Plant response rating, Johnsongrass” value [7, 26] was 85 and the “Plant response rating, Pigweed” value [8, 20] was 45. For the same compound, the “Plant response rating, Pigweed” value [8, 21] was 60, the “Plant response rating, Pigweed” value [8, 22] was 80 and the “Plant response rating, Pigweed” value [8, 23] was 85. For the same compound, the “Plant response rating, Pigweed” value [8, 24] was 100, the “Plant response rating, Pigweed” value [8, 27] was 100 and the “Plant response rating, Pigweed” value [8, 25] was 100. The “Plant response rating, Pigweed” value [8, 26] was 100, the “Plant response rating, Chickweed” value ([9]; 31 g ai/ha, scale 0 to 100 (0 no effect, 100 complete control)) was 60 and the “Plant response rating, Chickweed” value ([9]; 62 g ai/ha, scale 0 to 100 (0 no effect, 100 complete control)) was 75. For the same compound, the “Plant response rating, Chickweed” value ([9]; 125 g ai/ha, scale 0 to 100, 0 no effect, 100 complete control) was 75 and the “Plant response rating, Chickweed” value ([9]; 250 g ai/ha, scale 0 to 100) was 80.
COCc1nn(-c2ccc(C(F)(F)F)cc2)nc1Oc1cccc(OC(F)(F)F)c1 [Compound 115, 4-(methoxymethyl)-5-[3-(trifluoromethoxy)phenoxy]-2-[4-(trifluoromethyl)phenyl]-2H-1,2,3-triazole] gave a pest or weed control at 125 g/ha [1, 10] of 20%, a pest or weed control at 500 g/ha [1, 11] of 30% and a pest or weed control at 125 g/ha [1, 28] of 30%. The pest or weed control at 500 g/ha [1, 12] was 60%, the pest or weed control at 125 g/ha [2, 14] was 10% and the pest or weed control at 500 g/ha [2, 15] was 30%. For the same compound, the pest or weed control at 125 g/ha [2, 29] was 0%, the pest or weed control at 500 g/ha [2, 16] was 20% and the plant injury at 125 g/ha [3, 18] was 10%. For the same compound, the plant injury at 500 g/ha [3] was 30%, the Corn plant response rating (crop injury, 0 = no effect, 100 = complete kill) at 125 g/ha [3, 30] was 0% and the Corn plant response rating (crop injury, 0 = no effect, 100 = complete kill) at 500 g/ha [3, 19] was 10%.
Work on FCc1nn(-c2ccc(C(F)(F)F)cc2)nc1Oc1cccc(OC(F)(F)F)c1 [Compound 116, 4-(fluoromethyl)-5-[3-(trifluoromethoxy)phenoxy]-2-[4-(trifluoromethyl)phenyl]-2H-1,2,3-triazole] yielded a pest or weed control at 125 g/ha [1, 10] of 10%, a pest or weed control at 500 g/ha [1, 11] of 20% and a pest or weed control at 125 g/ha [1, 28] of 0%. The pest or weed control at 500 g/ha [1, 12] was 30%, the pest or weed control at 125 g/ha [2, 14] was 20% and the pest or weed control at 500 g/ha [2, 15] was 50%. The pest or weed control at 125 g/ha [2, 29] was 0%, the pest or weed control at 500 g/ha [2, 16] was 20% and the plant injury at 125 g/ha [3, 18] was 20%. For the same compound, the plant injury at 500 g/ha [3] was 30%, the Corn plant response rating (crop injury, 0 = no effect, 100 = complete kill) at 125 g/ha [3, 30] was 0% and the Corn plant response rating (crop injury, 0 = no effect, 100 = complete kill) at 500 g/ha [3, 19] was 10%.
